Assay results published in ChEMBL document CHEMBL1144021, “Molecular determinants of the anticonvulsant felbamate binding site in the N-methyl-D-aspartate receptor” (J Med Chem, 2008).
Activity calls are given as the source filed them. The rule behind the calls is not given here.

Assays:
[1] = tested on: Glutamate receptor ionotropic, NMDA 2B (Homo sapiens), Q13224 [N649A]; assay: Inhibition of NR2B receptor M3c N649A mutant expressed in Xenopus oocytes assessed as NMDA current at 0.5 mM relative to control; type: cell-based; details: Oocyte
[2] = Ratio of Kapp for wild type NR2B receptor to Kapp for NR2B receptor L643A/T103A mutant
[3] = Ratio of Kapp for wild type NR2B receptor to Kapp for NR2B receptor T103A/K234A mutant
[4] = Ratio of Kapp for wild type NR2B receptor to Kapp for ATD NR2B receptor F176A mutant
[5] = Ratio of Kapp for wild type NR2B receptor to Kapp for NR2B receptor S645A/I641A mutant
[6] = tested on: Glutamate receptor ionotropic, NMDA 2B (Homo sapiens), Q13224 [N616A]; assay: Inhibition of NR2B receptor M2 N616A mutant expressed in Xenopus oocytes assessed as NMDA current at 0.5 mM relative to control; type: cell-based; details: Oocyte
[7] = tested on: Glutamate receptor ionotropic, NMDA 2B (Homo sapiens), Q13224 [I641A]; assay: Inhibition of NR2B receptor M3c I641A mutant expressed in Xenopus oocytes assessed as NMDA current at 0.5 mM relative to control; type: cell-based; details: Oocyte
[8] = tested on: Glutamate receptor ionotropic, NMDA 2B (Homo sapiens), Q13224 [S546A]; assay: Inhibition of NR2B receptor Pre-M1 S546A mutant expressed in Xenopus oocytes assessed as NMDA current at 0.5 mM relative to control; type: cell-based; details: Oocyte
[9] = Ratio of Kapp for wild type NR2B receptor to Kapp for NR2B receptor M3c A652T mutant
[10] = tested on: Glutamate receptor ionotropic, NMDA 2B (Homo sapiens), Q13224 [S555A]; assay: Inhibition of NR2B receptor Pre-M1 S555A mutant expressed in Xenopus oocytes assessed as NMDA current at 0.5 mM relative to control; type: cell-based; details: Oocyte
[11] = Ratio of Kapp for wild type NR2B receptor to Kapp for NR2B receptor ATD D101A mutant
[12] = Ratio of Kapp for wild type NR2B receptor to Kapp for NR2B receptor L643A/S645A mutant
[13] = biological target: Glutamate receptor ionotropic, NMDA 2B (Homo sapiens) (UniProt Q13224); assay: Binding affinity to NR2B receptor
[14] = tested on: Glutamate receptor ionotropic, NMDA 2B (Homo sapiens), Q13224 [E236A]; assay: Inhibition of NR2B receptor ATD E236A mutant expressed in Xenopus oocytes assessed as NMDA current at 0.5 mM relative to control; type: cell-based; details: Oocyte
[15] = tested on: Glutamate receptor ionotropic, NMDA 2B (Homo sapiens), Q13224 [L643A,S645A]; assay: Binding affinity to NR2B receptor L643A/S645A mutant
[16] = tested on: Glutamate receptor ionotropic, NMDA 2B (Homo sapiens), Q13224 [N542A]; assay: Inhibition of NR2B receptor Pre-M1 N542A mutant expressed in Xenopus oocytes assessed as NMDA current at 0.5 mM relative to control; type: cell-based; details: Oocyte
[17] = tested on: Glutamate receptor ionotropic, NMDA 2B (Homo sapiens), Q13224 [S548A]; assay: Inhibition of NR2B receptor Pre-M1 S548A mutant expressed in Xenopus oocytes assessed as NMDA current at 0.5 mM relative to control; type: cell-based; details: Oocyte
[18] = tested on: Glutamate receptor ionotropic, NMDA 2B (Homo sapiens), Q13224 [W559A]; assay: Inhibition of NR2B receptor Pre-M1 W559A mutant expressed in Xenopus oocytes assessed as NMDA current at 0.5 mM relative to control; type: cell-based; details: Oocyte
[19] = tested on: Glutamate receptor ionotropic, NMDA 2B (Homo sapiens), Q13224 [D104A]; assay: Inhibition of NR2B receptor ATD D104A mutant expressed in Xenopus oocytes assessed as NMDA current at 0.5 mM relative to control; type: cell-based; details: Oocyte
[20] = tested on: Glutamate receptor ionotropic, NMDA 2B (Homo sapiens), Q13224 [V640A]; assay: Inhibition of NR2B receptor M3c V640A mutant expressed in Xenopus oocytes assessed as NMDA current at 0.5 mM relative to control; type: cell-based; details: Oocyte
[21] = Ratio of Kapp for wild type NR2B receptor to Kapp for NR2B receptor M3c I641A mutant
[22] = tested on: Glutamate receptor ionotropic, NMDA 2B (Homo sapiens), Q13224 [[…]]; assay: Binding affinity to NR2B receptor M3c T647A mutant
[23] = Ratio of Kapp for wild type NR2B receptor to Kapp for NR2B receptor ATD T233A mutant
[24] = tested on: Glutamate receptor ionotropic, NMDA 2B (Homo sapiens), Q13224 [S645A,K234A]; assay: Binding affinity to NR2B receptor S645A/K234A mutant
[25] = tested on: Glutamate receptor ionotropic, NMDA 2B (Homo sapiens), Q13224 [Q656A]; assay: Inhibition of NR2B receptor post-M3 Q656A mutant expressed in Xenopus oocytes assessed as NMDA current at 0.5 mM relative to control; type: cell-based; details: Oocyte
[26] = tested on: Glutamate receptor ionotropic, NMDA 2B (Homo sapiens), Q13224 [I655A]; assay: Inhibition of NR2B receptor post-M3 I655A mutant expressed in Xenopus oocytes assessed as NMDA current at 0.5 mM relative to control; type: cell-based; details: Oocyte
[27] = tested on: Glutamate receptor ionotropic, NMDA 2B (Homo sapiens), Q13224 [V558A]; assay: Inhibition of NR2B receptor Pre-M1 V558A mutant expressed in Xenopus oocytes assessed as NMDA current at 0.5 mM relative to control; type: cell-based; details: Oocyte
[28] = Ratio of Kapp for wild type NR2B receptor to Kapp for NR2B receptor T647A/S645A mutant
[29] = tested on: Glutamate receptor ionotropic, NMDA 2B (Homo sapiens), Q13224 [T103A]; assay: Inhibition of NR2B receptor ATD T103A mutant expressed in Xenopus oocytes assessed as NMDA current at 0.5 mM relative to control; type: cell-based; details: Oocyte
[30] = Binding affinity to NR2B receptor M3c […] mutant
[31] = Ratio of Kapp for wild type NR2B receptor to Kapp for NR2B receptor M3c T647A mutant
[32] = tested on: Glutamate receptor ionotropic, NMDA 2B (Homo sapiens), Q13224 [L643A]; assay: Inhibition of NR2B receptor M3c L643A mutant expressed in Xenopus oocytes assessed as NMDA current at 0.5 mM relative to control; type: cell-based; details: Oocyte
[33] = tested on: Glutamate receptor ionotropic, NMDA 2B (Homo sapiens), Q13224 [D557A]; assay: Inhibition of NR2B receptor Pre-M1 D557A mutant expressed in Xenopus oocytes assessed as NMDA current at 0.5 mM relative to control; type: cell-based; details: Oocyte
[34] = tested on: Glutamate receptor ionotropic, NMDA 2B (Homo sapiens), Q13224 [D101A]; assay: Binding affinity to NR2B receptor ATD D101A mutant
[35] = tested on: Glutamate receptor ionotropic, NMDA 2B (Homo sapiens), Q13224 [E657A]; assay: Inhibition of NR2B receptor post-M3 E657A mutant expressed in Xenopus oocytes assessed as NMDA current at 0.5 mM relative to control; type: cell-based; details: Oocyte

Sequence of Glutamate receptor ionotropic, NMDA 2B (Homo sapiens), Q13224 [N616A] (Q13224 whole entry N616A): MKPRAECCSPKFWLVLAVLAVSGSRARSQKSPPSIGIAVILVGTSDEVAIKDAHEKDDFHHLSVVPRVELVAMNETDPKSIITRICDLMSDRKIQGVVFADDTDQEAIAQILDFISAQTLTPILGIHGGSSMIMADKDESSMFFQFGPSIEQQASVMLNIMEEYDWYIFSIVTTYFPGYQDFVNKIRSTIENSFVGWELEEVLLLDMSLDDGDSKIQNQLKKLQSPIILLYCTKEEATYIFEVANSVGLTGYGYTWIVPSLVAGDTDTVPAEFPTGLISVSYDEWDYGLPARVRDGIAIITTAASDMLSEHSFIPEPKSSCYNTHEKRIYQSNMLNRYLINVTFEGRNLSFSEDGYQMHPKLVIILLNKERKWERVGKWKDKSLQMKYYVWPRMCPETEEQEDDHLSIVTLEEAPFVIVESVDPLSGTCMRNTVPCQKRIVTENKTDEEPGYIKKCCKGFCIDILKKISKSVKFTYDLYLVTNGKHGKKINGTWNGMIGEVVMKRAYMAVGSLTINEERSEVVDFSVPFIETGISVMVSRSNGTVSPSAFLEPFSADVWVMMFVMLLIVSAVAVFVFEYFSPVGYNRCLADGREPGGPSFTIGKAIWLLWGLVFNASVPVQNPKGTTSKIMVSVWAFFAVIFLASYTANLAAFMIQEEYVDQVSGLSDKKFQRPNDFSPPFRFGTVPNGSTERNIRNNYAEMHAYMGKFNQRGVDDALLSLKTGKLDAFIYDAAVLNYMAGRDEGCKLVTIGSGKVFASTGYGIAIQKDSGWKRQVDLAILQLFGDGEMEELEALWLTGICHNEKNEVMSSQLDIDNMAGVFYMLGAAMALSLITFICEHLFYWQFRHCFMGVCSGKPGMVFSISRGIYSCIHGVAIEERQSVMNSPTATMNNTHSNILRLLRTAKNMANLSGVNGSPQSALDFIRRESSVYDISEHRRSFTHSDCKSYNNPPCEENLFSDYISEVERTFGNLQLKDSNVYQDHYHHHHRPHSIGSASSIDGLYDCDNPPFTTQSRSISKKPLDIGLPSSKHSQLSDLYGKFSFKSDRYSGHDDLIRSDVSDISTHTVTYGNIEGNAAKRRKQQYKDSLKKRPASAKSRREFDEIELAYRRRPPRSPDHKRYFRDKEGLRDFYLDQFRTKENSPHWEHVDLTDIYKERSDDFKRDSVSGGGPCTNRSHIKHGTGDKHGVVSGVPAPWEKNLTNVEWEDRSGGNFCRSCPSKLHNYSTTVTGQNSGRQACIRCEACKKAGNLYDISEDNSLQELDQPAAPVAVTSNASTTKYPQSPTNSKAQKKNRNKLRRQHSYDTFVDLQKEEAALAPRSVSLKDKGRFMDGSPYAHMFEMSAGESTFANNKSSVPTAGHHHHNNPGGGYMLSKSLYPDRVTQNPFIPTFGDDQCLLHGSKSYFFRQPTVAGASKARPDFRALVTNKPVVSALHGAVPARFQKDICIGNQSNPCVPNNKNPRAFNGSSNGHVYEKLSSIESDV
Sequence of Glutamate receptor ionotropic, NMDA 2B (Homo sapiens), Q13224 [D101A] (Q13224 whole entry D101A): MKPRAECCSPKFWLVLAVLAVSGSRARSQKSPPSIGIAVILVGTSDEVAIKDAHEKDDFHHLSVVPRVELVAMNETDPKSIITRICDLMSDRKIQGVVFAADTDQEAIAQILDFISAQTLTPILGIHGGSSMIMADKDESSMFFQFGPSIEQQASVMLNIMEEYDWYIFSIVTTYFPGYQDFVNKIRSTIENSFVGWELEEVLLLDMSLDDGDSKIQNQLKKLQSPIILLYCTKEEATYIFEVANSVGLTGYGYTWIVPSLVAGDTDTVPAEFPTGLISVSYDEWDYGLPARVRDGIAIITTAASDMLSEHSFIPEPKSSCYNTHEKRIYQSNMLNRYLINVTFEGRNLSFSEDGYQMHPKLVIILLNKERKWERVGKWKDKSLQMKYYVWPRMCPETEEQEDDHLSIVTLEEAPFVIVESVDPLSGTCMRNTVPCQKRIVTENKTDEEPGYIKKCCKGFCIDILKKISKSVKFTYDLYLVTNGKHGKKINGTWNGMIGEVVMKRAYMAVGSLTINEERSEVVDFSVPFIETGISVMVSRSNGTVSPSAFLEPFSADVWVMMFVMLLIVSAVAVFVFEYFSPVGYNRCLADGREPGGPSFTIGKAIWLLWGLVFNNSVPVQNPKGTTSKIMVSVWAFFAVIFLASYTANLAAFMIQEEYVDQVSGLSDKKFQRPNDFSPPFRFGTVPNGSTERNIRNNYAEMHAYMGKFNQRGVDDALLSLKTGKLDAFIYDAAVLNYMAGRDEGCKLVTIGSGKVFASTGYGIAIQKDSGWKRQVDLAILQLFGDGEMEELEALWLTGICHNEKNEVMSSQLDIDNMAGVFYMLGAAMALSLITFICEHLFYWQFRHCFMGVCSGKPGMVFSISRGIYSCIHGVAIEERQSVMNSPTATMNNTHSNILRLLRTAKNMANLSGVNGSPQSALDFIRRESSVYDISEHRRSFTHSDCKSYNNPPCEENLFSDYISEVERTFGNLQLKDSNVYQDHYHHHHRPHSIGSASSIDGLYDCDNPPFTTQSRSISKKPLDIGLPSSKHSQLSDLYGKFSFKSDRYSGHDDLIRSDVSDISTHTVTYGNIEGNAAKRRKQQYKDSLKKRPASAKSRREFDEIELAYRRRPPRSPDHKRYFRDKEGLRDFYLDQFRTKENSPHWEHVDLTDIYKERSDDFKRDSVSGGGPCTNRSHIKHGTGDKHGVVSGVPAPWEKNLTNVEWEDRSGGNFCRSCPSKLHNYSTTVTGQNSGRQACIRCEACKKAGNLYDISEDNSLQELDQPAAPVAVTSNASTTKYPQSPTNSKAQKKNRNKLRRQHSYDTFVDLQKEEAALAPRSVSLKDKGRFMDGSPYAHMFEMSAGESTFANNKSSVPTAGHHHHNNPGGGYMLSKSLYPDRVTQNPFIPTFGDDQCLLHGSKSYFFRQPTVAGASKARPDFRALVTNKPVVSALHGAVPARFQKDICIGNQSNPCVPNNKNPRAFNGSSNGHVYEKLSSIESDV
Sequence of Glutamate receptor ionotropic, NMDA 2B (Homo sapiens), Q13224 [Q656A] (Q13224 whole entry Q656A): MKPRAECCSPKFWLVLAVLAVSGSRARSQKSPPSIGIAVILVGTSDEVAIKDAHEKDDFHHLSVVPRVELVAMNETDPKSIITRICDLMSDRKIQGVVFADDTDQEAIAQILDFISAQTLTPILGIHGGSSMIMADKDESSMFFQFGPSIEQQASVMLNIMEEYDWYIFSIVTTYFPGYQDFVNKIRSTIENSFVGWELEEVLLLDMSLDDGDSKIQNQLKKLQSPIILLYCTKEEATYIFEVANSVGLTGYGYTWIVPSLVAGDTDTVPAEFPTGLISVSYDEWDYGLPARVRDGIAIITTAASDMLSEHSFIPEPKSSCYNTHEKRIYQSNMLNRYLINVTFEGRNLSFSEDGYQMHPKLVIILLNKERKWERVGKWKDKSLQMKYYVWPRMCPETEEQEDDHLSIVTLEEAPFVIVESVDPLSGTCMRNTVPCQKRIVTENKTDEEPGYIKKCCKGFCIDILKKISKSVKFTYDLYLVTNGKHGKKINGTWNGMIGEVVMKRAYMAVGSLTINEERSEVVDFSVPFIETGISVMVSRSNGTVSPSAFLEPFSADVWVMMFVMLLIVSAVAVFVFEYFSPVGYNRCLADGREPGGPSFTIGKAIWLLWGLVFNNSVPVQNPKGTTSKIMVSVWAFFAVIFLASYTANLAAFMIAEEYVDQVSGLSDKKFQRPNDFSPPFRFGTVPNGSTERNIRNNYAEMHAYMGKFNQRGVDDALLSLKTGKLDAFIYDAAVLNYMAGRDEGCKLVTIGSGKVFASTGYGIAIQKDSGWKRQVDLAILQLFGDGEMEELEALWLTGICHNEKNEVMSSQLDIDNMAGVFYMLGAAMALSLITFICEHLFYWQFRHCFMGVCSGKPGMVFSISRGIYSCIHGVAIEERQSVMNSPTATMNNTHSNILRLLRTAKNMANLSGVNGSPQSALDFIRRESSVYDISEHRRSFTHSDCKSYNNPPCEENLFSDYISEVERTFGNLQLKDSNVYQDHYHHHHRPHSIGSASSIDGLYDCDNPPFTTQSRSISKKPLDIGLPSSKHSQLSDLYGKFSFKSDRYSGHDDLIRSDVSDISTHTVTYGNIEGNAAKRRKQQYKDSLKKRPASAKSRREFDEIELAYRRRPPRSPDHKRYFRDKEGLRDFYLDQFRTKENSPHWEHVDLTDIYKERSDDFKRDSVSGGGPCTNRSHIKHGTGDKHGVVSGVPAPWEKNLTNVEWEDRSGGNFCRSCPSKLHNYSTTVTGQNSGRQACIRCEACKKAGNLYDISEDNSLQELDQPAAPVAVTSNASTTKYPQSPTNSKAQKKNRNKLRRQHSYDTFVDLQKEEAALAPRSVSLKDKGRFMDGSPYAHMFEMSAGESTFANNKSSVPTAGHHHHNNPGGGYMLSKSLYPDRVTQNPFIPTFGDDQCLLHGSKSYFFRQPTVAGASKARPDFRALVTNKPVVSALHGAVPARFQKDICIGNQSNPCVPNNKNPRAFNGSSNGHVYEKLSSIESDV

Activity [1]: inactive
Ratio Ki(app) [2]: 5.8
Ratio Ki(app) [3]: 4.8
Ratio Ki(app) [4]: 3.2
Ratio Ki(app) [5]: 5.1
inhibition [6]: 72%
inhibition [7]: 84%
inhibition [8]: 64%
Ratio Ki(app) [9]: 3.3
inhibition [10]: 72%
Ratio Ki(app) [11]: 3.2
Ratio Ki(app) [12]: 7.7
Kapp [13]: 0.87 mM
inhibition [14]: 83%
Kapp [15]: 6.68 mM
inhibition [16]: 73%
inhibition [17]: 76%
Activity [18]: inactive
inhibition [19]: 75%
inhibition [20]: 71%
Ratio Ki(app) [21]: 2.8
Kapp [22]: 6.5 mM
Ratio Ki(app) [23]: 2.9
Kapp [24]: 7.1 mM
inhibition [25]: 70%
inhibition [26]: 76%
inhibition [27]: 71%
Ratio Ki(app) [28]: 8.1
inhibition [29]: 85%
Kapp [30]: 5.64 mM
Ratio Ki(app) [31]: 7.5
inhibition [32]: 90%
inhibition [33]: 75%
Kapp [34]: 2.76 mM
inhibition [35]: 61%
Structure (SMILES): NC(=O)OCC(COC(N)=O)c1ccccc1
